Key:
Catenin α2 = molecular target: T1, Catenin α2 (Homo sapiens, UniProt P26232); test: Surface plasmon resonance (Biacore); type: binding; details: Catenin α2, SPR
T1 sequence (P26232 1-953): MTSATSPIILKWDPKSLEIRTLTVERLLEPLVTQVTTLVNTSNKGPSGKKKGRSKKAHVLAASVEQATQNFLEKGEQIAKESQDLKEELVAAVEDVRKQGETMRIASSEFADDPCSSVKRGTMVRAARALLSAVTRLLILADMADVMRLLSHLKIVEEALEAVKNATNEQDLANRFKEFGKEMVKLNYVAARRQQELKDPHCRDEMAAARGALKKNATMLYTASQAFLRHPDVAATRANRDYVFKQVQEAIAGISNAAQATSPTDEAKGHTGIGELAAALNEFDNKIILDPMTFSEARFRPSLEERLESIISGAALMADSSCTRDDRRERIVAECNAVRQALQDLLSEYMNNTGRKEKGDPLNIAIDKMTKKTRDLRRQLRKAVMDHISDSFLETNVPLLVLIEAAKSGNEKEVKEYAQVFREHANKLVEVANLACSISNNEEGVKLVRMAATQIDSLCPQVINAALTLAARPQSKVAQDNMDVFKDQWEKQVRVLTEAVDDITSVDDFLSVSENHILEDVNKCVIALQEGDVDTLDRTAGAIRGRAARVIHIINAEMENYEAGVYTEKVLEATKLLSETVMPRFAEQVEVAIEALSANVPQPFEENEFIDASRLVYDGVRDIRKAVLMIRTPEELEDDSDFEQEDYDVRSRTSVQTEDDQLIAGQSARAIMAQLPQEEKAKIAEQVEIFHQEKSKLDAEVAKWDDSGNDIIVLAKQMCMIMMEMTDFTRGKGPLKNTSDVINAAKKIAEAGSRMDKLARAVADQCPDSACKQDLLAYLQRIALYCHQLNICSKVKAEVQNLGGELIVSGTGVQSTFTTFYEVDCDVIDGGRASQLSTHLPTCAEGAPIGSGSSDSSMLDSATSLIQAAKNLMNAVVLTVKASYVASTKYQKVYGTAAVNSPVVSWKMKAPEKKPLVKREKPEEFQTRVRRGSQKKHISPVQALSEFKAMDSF

GADD45GIP1 = GADD45GIP1 (Homo sapiens, UniProt Q8TAE8); test: Surface plasmon resonance (Biacore); type: binding; details: GADD45GIP1, SPR
Nucleolin = Nucleolin (Homo sapiens, UniProt P19338); test: Surface plasmon resonance (Biacore); type: binding; details: SPR
Nucleolin, sequence (P19338 whole entry): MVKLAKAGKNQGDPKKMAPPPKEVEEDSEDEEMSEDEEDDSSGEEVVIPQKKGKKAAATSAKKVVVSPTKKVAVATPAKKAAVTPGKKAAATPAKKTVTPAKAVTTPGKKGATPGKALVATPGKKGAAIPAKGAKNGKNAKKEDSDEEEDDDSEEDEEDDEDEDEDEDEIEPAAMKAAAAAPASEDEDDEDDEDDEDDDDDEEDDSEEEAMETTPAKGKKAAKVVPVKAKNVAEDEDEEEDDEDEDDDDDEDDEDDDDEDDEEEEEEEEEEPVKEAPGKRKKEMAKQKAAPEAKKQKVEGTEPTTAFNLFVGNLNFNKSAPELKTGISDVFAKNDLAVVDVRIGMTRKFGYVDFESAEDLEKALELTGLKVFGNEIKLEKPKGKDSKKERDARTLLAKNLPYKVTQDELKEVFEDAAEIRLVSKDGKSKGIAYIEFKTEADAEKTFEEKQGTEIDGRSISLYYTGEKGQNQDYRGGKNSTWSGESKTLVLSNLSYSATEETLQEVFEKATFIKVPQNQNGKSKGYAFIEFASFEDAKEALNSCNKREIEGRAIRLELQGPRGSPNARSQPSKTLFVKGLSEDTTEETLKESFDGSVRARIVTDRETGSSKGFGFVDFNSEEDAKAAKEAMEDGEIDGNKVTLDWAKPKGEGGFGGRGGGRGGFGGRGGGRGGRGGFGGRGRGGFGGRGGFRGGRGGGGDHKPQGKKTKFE

M14 = test: NCI 60 cytotoxicity screening; type: cell-based; details: Homo sapiens; M14, Melanoma
MDA-MB-435 = test: NCI 60 cytotoxicity screening; type: cell-based; details: Homo sapiens; MDA-MB-435, Melanoma
SF-295 = test: NCI 60 cytotoxicity screening; type: cell-based; details: Homo sapiens; SF-295, CNS
A498 = test: NCI 60 cytotoxicity screening; type: cell-based; details: Homo sapiens; A498, Renal
NCI-H23 = test: NCI 60 cytotoxicity screening; type: cell-based; details: Homo sapiens; NCI-H23, NSCLC
HOP-62 = test: NCI 60 cytotoxicity screening; type: cell-based; details: Homo sapiens; HOP-62, NSCLC
Notch4 ICD = test: qPCR analysis of Notch4 expression; type: cell-based, human; details: C8161, 10 nM, 8–72 h
Experimental: For the qPCR analysis of Nodal and Notch expression, total RNA was isolated from cells using the PerfectPure RNA Cell Isolation kit (5Prime) and then reverse-transcribed using 1 μg RNA, RT master mix cocktail and MMLV reverse transcriptase. qPCR was performed on a 7500 Real-Time PCR System (Life Technologies) using manufacturer recommended protocol. TaqMan gene expression human primer/probe sets (Applied Biosystems) utilized were Nodal (Hs00250630_s1) and Notch4 (Hs00270200_m1). Target gene expression was normalized to appropriate house-keeping genes (e.g., RPLP0 or GAPDH). Data was analyzed using Life Technologies Sequence Detection Software.

Row | Compound | Association (ka) (Catenin α2) | Dissociation (kd) (Catenin α2) | KD (kd/ka) (Catenin α2) | Association (ka) (GADD45GIP1) | Dissociation (kd) (GADD45GIP1) | KD (kd/ka) (GADD45GIP1) | Dissociation (kd) (Nucleolin) [s⁻¹] | kon (Nucleolin; read-out: Association (ka)) [M⁻¹ s⁻¹] | Kd (Nucleolin; read-out: KD (kd/ka)) [nM] | GI50 (M14) [nM] | GI50 (MDA-MB-435) [nM] | GI50 (SF-295) [nM] | GI50 (A498) [nM] | GI50 (NCI-H23) [nM] | GI50 (HOP-62) [nM] | expression of Notch4 ICD (mRNA) (Notch4 ICD)
1 | COc1ccc2[nH]c(-c3cccc(F)c3)cc(=O)c2c1O [CVM-1125] | No dose dependent interaction | No dose dependent interaction | No dose dependent interaction | No interaction | No interaction | No interaction | 0.0122 | 13500 | 906 | 18.9 | < 10 | 25.5 | 24.8 | 34.5 | 49.6 | –
2 | COc1ccc2[nH]c(-c3cccc(F)c3)cc(=O)c2c1OP(=O)(O)O [CVM-1118] | – | – | – | – | – | – | – | – | – | – | – | – | – | – | – | decreased

Source: publication PMC10283505, “CVM-1118 (foslinanib), a 2-phenyl-4-quinolone derivative, promotes apoptosis and inhibits vasculogenic mimicry via targeting TRAP1” (Pathology and Oncology Research, 2023)
